# Experimental data from US4450163A, “Process for the preparation of 1,3,7-trialkyl xanthines and di(3,7-dimethylxanthin-1-yl)methane as a medicament” (Societe d'Assistance Technique pour Produits Nestle S.A., priority 1979, dated 1984).
# Key:
# [1] = pharmacological studies (immunosuppressant activity, adverse effects); assay type: in vivo; details: in words
# [2] = system: ear-swelling in mice in response to antigenic challenge; assay: dermal delayed hypersensitivity test (oxazolone), inhibition of ear-swelling in mice; assay type: in vivo; details: oxazolone sensitized, 150 mg/kg b.w. i.p. at challenge, ear thickness 24 hours after challenge, compared to control animals
# Experimental: Immunosuppression of the compound of Example 25 was compared with cyclophosphamide, a known immunosuppressant drug, as an inhibitor of ear-swelling in mice in response to antigenic challenge in a dermal delayed hypersensitivity test at 150 mg/kg body weight.
# The test was performed as is described e.g. by G. L. Asherton and W. Ptak in Immunology 15, 405 (1968). Mice were immunized by applying on the abdomen skin 0.1 ml of a 3% oxazolone solution. 7 days after sensitization, they were challenged by painting the same solution on the ear skin. Part of the mice were simultaneously administered i.p. the immunosuppressant drug of Example 25 or cyclophosphamide. The remaining animals served as controls. 24 hours after challenge, the increase in ear thickness was measured. Immunosuppressant activity was expressed in % of inhibition of ear-swelling in drug-administered mice compared to control animals.
Compound,immunosuppressant activity [1],toxic adverse effect [1],% inhib. of ear-swelling [2]
"Cn1cnc2c1c(=O)n(Cn1c(=O)c3c(ncn3C)n(C)c1=O)c(=O)n2C [Example 25, di(3,7-dimethylxanthin-1-yl)methane]",has an immunosuppressant activity,no toxic adverse effect,55%
"O=P1(N(CCCl)CCCl)NCCCO1 (stereo not shown) [Cyclophosphamide, reference compound]",–,–,73%
